Assay results as given in patent US20230117034A1, “PYRAZOLOTRIAZINES” (Bayer Aktiengesellschaft, priority 2019, published 2023).
Where two headings read alike, the source gives them in different places.

What was measured:
[1] = system: Human tumour cells (cell line panel); assay: Proliferation assay: cell line panel (crystal violet, 4 days); format: cell-based; conditions: read-out: Result Category, IC50 (mean)
Text: Human tumour cells were originally obtained from the American Type Culture Collection (ATCC), from Cell Line Services GmbH (CLS), from the Deutsche Sammlung von Mikroorganismen und Zellkulturen (DSMZ, German Collection of Microorganisms and Cell Cultures), from the Japanese Cancer Research Resources Bank (JCRB), from Public Health England, from the European Collection of Authenticated Cell Cultures (ECACC), from Asterand Biosciences, or from the National Cancer Institute (NCI). Cultivated tumour cells were plated at the density as indicated in Table 6 in 96-well multititer plates in 200 microL of their respective growth medium supplemented 10% fetal calf serum. After 24 hours, the cells of one plate (zero-point plate) were stained with crystal violet (see below), while the medium of the other plates was supplemented with the test substances in various concentrations (0 micromol/L, as well as in the range of 0.003-3 micromol/L; the final concentration of the solvent dimethyl sulfoxide was adjusted to 0.1%) using a Tecan HP D300 Digital Dispenser. The cells were incubated for 4 days in the presence of test substances. Cell proliferation was determined by staining the cells with crystal violet: the cells were fixed by adding 20 microL/measuring point of an 11% glutaric aldehyde solution for 15 minutes at room temperature. After three washing cycles of the fixed cells with water, the plates were dried at room temperature. The cells were stained by adding 100 microL/measuring point of a 0.1% crystal violet solution (pH 3.0). After three washing cycles of the stained cells with water, the plates were dried at room temperature. The dye was dissolved by adding 100 microL/measuring point of a 10% acetic acid solution. The extinction was determined by photometry at a wavelength of 595 nm. The change of cell number, in percent, was calculated by normalization of the measured values to the extinction values of the zero-point plate (=0%) and the extinction of the untreated (0 μM) cells (=100%). The […] values (inhibitory concentration at 50% of maximal effect) were determined by means of a 4 parameter fit.

[2] = target: T1, CDK12 protein level in CAL-120 breast cancer cells (Homo sapiens, UniProt Q9NYV4); assay: CDK12 protein level: Protein Simple (CDK12, CAL-120); format: cell-based; conditions: CAL-120 cells, 18 h with compound, CDK12/HSP90 peak area ratio vs vehicle, median, read-out: CDK12 protein level in CAL-120 breast ca cells, DC50-[mol/l] (median)
T1 construct: endogenous in cells; host or cells: CAL-120 human breast cancer cells (DSMZ ACC 459)
T1 sequence (Q9NYV4 whole entry): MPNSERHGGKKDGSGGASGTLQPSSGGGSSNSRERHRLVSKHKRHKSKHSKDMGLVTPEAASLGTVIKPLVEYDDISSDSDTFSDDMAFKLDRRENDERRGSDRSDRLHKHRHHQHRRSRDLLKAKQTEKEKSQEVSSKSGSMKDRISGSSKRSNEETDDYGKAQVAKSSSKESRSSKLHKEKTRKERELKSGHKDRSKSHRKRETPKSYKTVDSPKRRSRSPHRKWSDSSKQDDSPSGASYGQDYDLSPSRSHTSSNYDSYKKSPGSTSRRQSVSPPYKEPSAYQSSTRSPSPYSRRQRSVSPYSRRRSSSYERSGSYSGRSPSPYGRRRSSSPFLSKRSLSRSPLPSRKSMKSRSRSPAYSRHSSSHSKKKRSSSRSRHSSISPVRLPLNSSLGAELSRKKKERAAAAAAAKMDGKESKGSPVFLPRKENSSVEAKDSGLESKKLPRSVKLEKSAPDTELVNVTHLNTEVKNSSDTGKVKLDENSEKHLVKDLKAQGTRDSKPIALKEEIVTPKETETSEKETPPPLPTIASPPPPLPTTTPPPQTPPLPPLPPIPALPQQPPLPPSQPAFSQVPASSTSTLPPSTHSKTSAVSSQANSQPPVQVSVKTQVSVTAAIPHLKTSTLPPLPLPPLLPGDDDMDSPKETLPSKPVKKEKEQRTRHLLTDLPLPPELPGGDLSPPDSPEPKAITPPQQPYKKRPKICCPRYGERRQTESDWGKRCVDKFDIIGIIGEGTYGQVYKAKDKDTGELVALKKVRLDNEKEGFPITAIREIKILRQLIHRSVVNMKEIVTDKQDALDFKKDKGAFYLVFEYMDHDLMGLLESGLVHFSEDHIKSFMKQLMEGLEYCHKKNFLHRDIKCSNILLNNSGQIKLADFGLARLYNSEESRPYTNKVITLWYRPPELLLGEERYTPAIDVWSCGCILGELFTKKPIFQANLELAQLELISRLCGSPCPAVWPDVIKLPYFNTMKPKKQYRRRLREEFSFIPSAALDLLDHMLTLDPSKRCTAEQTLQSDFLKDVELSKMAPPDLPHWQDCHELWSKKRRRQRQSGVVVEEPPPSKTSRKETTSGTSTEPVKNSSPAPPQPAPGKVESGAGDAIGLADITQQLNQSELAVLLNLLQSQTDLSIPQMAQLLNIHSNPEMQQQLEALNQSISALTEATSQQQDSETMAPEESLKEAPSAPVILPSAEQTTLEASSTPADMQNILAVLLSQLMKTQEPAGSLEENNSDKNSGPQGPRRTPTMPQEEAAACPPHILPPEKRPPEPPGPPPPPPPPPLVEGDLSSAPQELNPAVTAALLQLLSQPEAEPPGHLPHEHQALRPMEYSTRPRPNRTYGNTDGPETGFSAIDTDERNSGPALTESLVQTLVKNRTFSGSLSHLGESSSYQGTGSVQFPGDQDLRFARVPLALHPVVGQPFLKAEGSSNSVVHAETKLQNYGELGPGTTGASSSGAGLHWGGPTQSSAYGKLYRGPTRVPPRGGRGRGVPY
T1 sequence (O75909 whole entry partner): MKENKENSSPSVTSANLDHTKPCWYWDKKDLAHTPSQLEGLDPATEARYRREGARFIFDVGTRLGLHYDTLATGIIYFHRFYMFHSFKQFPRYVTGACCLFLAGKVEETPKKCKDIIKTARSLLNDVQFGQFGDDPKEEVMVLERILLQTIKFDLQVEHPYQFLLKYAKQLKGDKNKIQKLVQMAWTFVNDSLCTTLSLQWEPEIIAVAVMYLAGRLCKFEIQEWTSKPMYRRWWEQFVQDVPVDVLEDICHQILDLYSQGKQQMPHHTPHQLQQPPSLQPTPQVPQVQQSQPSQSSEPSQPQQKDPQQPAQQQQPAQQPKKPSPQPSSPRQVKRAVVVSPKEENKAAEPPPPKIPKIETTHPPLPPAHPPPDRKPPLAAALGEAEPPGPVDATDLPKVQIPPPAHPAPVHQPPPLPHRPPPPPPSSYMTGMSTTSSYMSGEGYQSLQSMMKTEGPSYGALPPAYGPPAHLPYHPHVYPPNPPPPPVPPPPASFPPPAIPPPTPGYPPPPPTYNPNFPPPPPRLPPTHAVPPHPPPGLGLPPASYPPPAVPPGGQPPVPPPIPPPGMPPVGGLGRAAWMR
Experimental: CAL-120 human breast cancer cells (DSMZ ACC 459) were seeded at 300,000 cells/well in 6-well plates containing 2 mL of growth medium (DMEM, 10% FCS, glutamine) and incubated for 24 h at 37° C. in an humidified incubator. Test compounds were added at various concentrations, control wells received solvent (DMSO), and the plates were incubated for another 18 h at 37° C. Cells were washed 2 times with PBS and lysed in 75 microL lysis buffer (MSD-Puffer (MSD, #R60TX-2), +1% 505S+PhosSTOP (Roche #04906837001)+complete mini (Roche #04693159001)) by scraping. The lysates were pushed 2 times through Qiashedders followed by centrifugation at 14,000 rpm for 30-50 sec. The supernatant was stored at −20° C. Proteins were separated by applying 0.4 microgramms of protein lysate to Protein Simple 66-440 kDa (Protein Simple #SM-S002) size assay columns on a PEGGY SUE or SALLY SUE equipment according to the supplier's manual. CDK12 and HSP90 (loading control) were detected using anti-human CDK12 antibody (Cell Signaling Technologies (CST) #11793) at 1:25 dilution and anti-human HSP90 antibody (CST #4877) at 1:5,000 dilution. CDK12 and HSP90 peak areas were determined using Protein Simple Compass software. Ratio of CDK12/HSP90 peak areas were calculated for each sample, and […] values (degrading concentration to achieve 50% reduction relative to vehicle treated control) were determined by means of a 4 parameter fit.

IC50 ([1]; A673, sarcoma, 5000 cells/well): ≤ 30 nM
IC50 ([1]; AU565, breast cancer, HER2 positive, 4000 cells/well): ≤ 30 nM
IC50 ([1]; BT-474, BT474, breast cancer, HER2 positive, 4000 cells/well): ≤ 30 nM
IC50 ([1]; BT-549, BT549, breast cancer, 4000 cells/well): ≤ 30 nM
IC50 ([1]; CAL-120, breast cancer, triple-negative, 4000 cells/well): ≤ 30 nM
IC50 ([1]; COV318, ovarian cancer, 4000 cells/well): ≥ 100 nM
IC50 ([1]; COV362, ovarian cancer, 4000 cells/well): ≥ 100 nM
IC50 ([1]; Calu-3, lung cancer, non-small cell, 4000 cells/well): 30 to 100 nM
IC50 ([1]; DLD-1, DLD1, colorectal cancer, 4000 cells/well): 30 to 100 nM
IC50 ([1]; DMS-79, DMS79, lung cancer, small cell, 5000 cells/well): 30 to 100 nM
IC50 ([1]; DU-145, DU145, prostate cancer, 3000 cells/well): ≥ 100 nM
IC50 ([1]; EFM-192A, EFM192A, breast cancer, HER2 positive, 4000 cells/well): 30 to 100 nM
IC50 ([1]; HCC202, breast cancer, HER2 positive, 5000 cells/well): ≤ 30 nM
IC50 ([1]; HCC366, lung cancer, non-small cell, 4000 cells/well): 30 to 100 nM
IC50 ([1]; HCC1143, breast cancer, triple-negative, 4000 cells/well): ≤ 30 nM
IC50 ([1]; HCC1419, breast cancer, HER2 positive, 4000 cells/well): ≥ 100 nM
IC50 ([1]; HCC1599, breast cancer, triple-negative, 5000 cells/well): ≥ 100 nM
IC50 ([1]; HCC1806, breast cancer, triple-negative, 4000 cells/well): ≥ 100 nM
IC50 ([1]; HCC1937, breast cancer, triple-negative, 5000 cells/well): ≥ 100 nM
IC50 ([1]; HCC1954, breast cancer, HER2 positive, 4000 cells/well): ≤ 30 nM
IC50 ([1]; HCC2157, breast cancer, triple-negative, 5000 cells/well): ≤ 30 nM
IC50 ([1]; HCT-116, HCT116, colorectal cancer, 3000 cells/well): ≥ 100 nM
IC50 ([1]; HT-29, HT29, colorectal cancer, 2000 cells/well): ≤ 30 nM
IC50 ([1]; HT-144, melanoma, 4000 cells/well): ≥ 100 nM
IC50 ([1]; HUH-6clone5, liver cancer, 4000 cells/well): ≥ 100 nM
IC50 ([1]; HUH-7, liver cancer, 4000 cells/well): ≤ 30 nM
IC50 ([1]; HeLa, cervical cancer, 3000 cells/well): 30 to 100 nM
IC50 ([1]; JHH7, JHH-7, liver cancer, 4000 cells/well): ≤ 30 nM
IC50 ([1]; JHH-4, liver cancer, 4000 cells/well): 30 to 100 nM
IC50 ([1]; JIMT-1, JIMT1, breast cancer, HER2 positive, 4000 cells/well): ≤ 30 nM
IC50 ([1]; KYSE−410, estophageal cancer, 4000 cells/well): 30 to 100 nM
IC50 ([1]; LNCap, prostate cancer, 5000 cells/well): 30 to 100 nM
IC50 ([1]; Lovo, colorectal cancer, 4000 cells/well): 30 to 100 nM
IC50 ([1]; MCF7, breast cancer, 4000 cells/well): ≥ 100 nM
IC50 ([1]; MDA-MB-231, breast cancer, triple-negative, 4000 cells/well): ≤ 30 nM
IC50 ([1]; MDA-MB-361, breast cancer, HER2 positive, 5000 cells/well): 30 to 100 nM
IC50 ([1]; MDA-MB-436, breast cancer, triple-negative, 4000 cells/well): ≤ 30 nM
IC50 ([1]; MDA-MB-468, breast cancer, triple-negative, 4000 cells/well): ≤ 30 nM
IC50 ([1]; MKN-1, MKN1, gastric cancer, 4000 cells/well): 30 to 100 nM
IC50 ([1]; NCI-H23, lung cancer, non-small cell, 3000 cells/well): 30 to 100 nM
IC50 ([1]; NCI-H69, lung cancer, small cell, 4000 cells/well): 30 to 100 nM
IC50 ([1]; NCI-H82, lung cancer, small cell, 4000 cells/well): 30 to 100 nM
IC50 ([1]; NCI-H345, lung cancer, small cell, 5000 cells/well): 30 to 100 nM
IC50 ([1]; NCI-H446, lung cancer, small cell, 4000 cells/well): 30 to 100 nM
IC50 ([1]; NCI-H460, lung cancer, non-small cell, 3000 cells/well): ≥ 100 nM
IC50 ([1]; NCI-H526, lung cancer, small cell, 4000 cells/well): 30 to 100 nM
IC50 ([1]; NCI-H1155, lung cancer, non-small cell, 4000 cells/well): 30 to 100 nM
IC50 ([1]; NCI-H1299, lung cancer, non-small cell, 4000 cells/well): 30 to 100 nM
IC50 ([1]; NCI-H1623, lung cancer, non-small cell, 5000 cells/well): 30 to 100 nM
IC50 ([1]; NCI-H1734, lung cancer, non-small cell, 5000 cells/well): ≤ 30 nM
IC50 ([1]; NCI-H1793, lung cancer, non-small cell, 5000 cells/well): 30 to 100 nM
IC50 ([1]; NCI-H1836, lung cancer, small cell, 5000 cells/well): 30 to 100 nM
IC50 ([1]; NCI-H1838, lung cancer, non-small cell, 4000 cells/well): ≤ 30 nM
IC50 ([1]; NCI-H1975, lung cancer, non-small cell, 3000 cells/well): 30 to 100 nM
IC50 ([1]; NCI-H2009, lung cancer, non-small cell, 5000 cells/well): 30 to 100 nM
IC50 ([1]; NCI-H2029, lung cancer, small cell, 5000 cells/well): ≤ 30 nM
IC50 ([1]; NCI-H2030, lung cancer, non-small cell, 4000 cells/well): ≤ 30 nM
IC50 ([1]; NCI-H2405, lung cancer, non-small cell, 4000 cells/well): ≥ 100 nM
IC50 ([1]; NCI-N87, gastric cancer, 4000 cells/well): ≤ 30 nM
IC50 ([1]; OVCAR-3, OVCAR3, ovarian cancer, 5000 cells/well): 30 to 100 nM
IC50 ([1]; OVCAR-8, OVCAR8, ovarian cancer, 4000 cells/well): 30 to 100 nM
IC50 ([1]; PC-3, prostate cancer, 3000 cells/well): 30 to 100 nM
IC50 ([1]; PLC/PRF/5, liver cancer, 4000 cells/well): ≤ 30 nM
IC50 ([1]; SK-BR-3, breast cancer, HER2 positive, 5000 cells/well): ≤ 30 nM
IC50 ([1]; SK-HEP1, SK-HEP-1, liver cancer, 4000 cells/well): ≤ 30 nM
IC50 ([1]; SK-OV-3, ovarian cancer, 4000 cells/well): ≥ 100 nM
IC50 ([1]; SNU-449, SNU449, liver cancer, 4000 cells/well): 30 to 100 nM
IC50 ([1]; SUM149, breast cancer, triple-negative, 4000 cells/well): ≤ 30 nM
IC50 ([1]; SW480, colorectal cancer, 3000 cells/well): ≤ 30 nM
IC50 ([1]; SW-620, SW620, colorectal cancer, 3000 cells/well): ≤ 30 nM
IC50 ([1]; U2OS, U2-OS, sarcoma, 5000 cells/well): ≤ 30 nM
IC50 ([1]; U-251, U251MG, glioblastoma, 3000 cells/well): 30 to 100 nM
DC50 [2]: 0.476 nM
Structure (SMILES): Brc1cnn2c(NCc3nc4ccccc4[nH]3)nc(N3CCOCC3)nc12 [Example 4, N-[(1H-benzimidazol-2-yl)methyl]-8-bromo-2-(morpholin-4-yl)pyrazolo[1,5-a][1,3,5]triazin-4-amine]
IC50 ([1]; HCC70, breast cancer, triple-negative, 5000 cells/well): 30 to 100 nM
